Laboratory results taken from ChEMBL document CHEMBL1201862, “PubChem BioAssay data set” (2004).
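Method: 48-hour compound exposure of cells in 96-well plates, five concentrations, linear interpolation of endpoints. The concentration for 50% growth inhibition is given as GI50.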 Activity calls are given as the source filed them. Cut-off read from the data, not from the text of the source: active = GI50 up to about 1.1 µM and inactive = higher.

How the values were obtained:
Assay in all cases: DTP human tumour cell line panel, 48 h
SN12C = system: SN12C
SNB-19 = system: SNB-19
A549 = system: A549
DLD-1 = system: DLD-1
OVCAR-8 = system: OVCAR-8
HOP-62 = system: HOP-62
SNB-75 = system: SNB-75
SR = system: SR
OVCAR-5 = system: OVCAR-5
NCI-H23 = system: NCI-H23
M14 = system: M14
HT-29 = system: HT-29
HCT-116 = system: HCT-116
EKVX = system: EKVX
CCRF-CEM = system: CCRF-CEM
LOX IMVI = system: LOX IMVI
SK-OV-3 = system: SK-OV-3

Measured: GI50

CC1=C(CO)C(=O)OC(C(C)C2CCC3C4CC5OC56C(O)C(N5CC5)=CC(=O)C6(C)C4CCC23C)C1 (stereo unspecified)
inactive: SN12C 6.58 µM | SNB-19 2.04 µM | A549 10.4 µM | DLD-1 4.93 µM | OVCAR-8 2.2 µM | HOP-62 18.5 µM | SNB-75 4.01 µM | SR 2.77 µM | OVCAR-5 17.4 µM | NCI-H23 2.35 µM | M14 12.1 µM | HT-29 3.94 µM | HCT-116 3.02 µM | EKVX 12.2 µM | CCRF-CEM 2.61 µM | LOX IMVI 14 µM

CCOC(=O)C1(C)CCC(C(C(=O)O)C(=O)O)CC1=O (stereo unspecified)
inactive: SN12C > 100 µM | SNB-19 > 100 µM | A549 > 100 µM | SK-OV-3 > 100 µM | DLD-1 > 100 µM | OVCAR-8 > 100 µM | HOP-62 > 100 µM | SNB-75 > 100 µM | SR > 100 µM | OVCAR-5 > 100 µM | M14 > 100 µM | HT-29 > 100 µM | HCT-116 > 100 µM | EKVX > 100 µM | CCRF-CEM > 100 µM | LOX IMVI > 100 µM

COc1ccc2c(c1)CC1c3c(ccc(OC)c3O)CC2N1C (stereo unspecified)
inactive: SN12C 43 µM | SNB-19 47.6 µM | A549 57.3 µM | SK-OV-3 62.7 µM | DLD-1 68.5 µM | OVCAR-8 34.2 µM | HOP-62 > 92.3 µM | SNB-75 38.3 µM | SR 15.3 µM | OVCAR-5 54.5 µM | NCI-H23 43.6 µM | M14 16.5 µM | HT-29 22.9 µM | HCT-116 19.6 µM | EKVX 50.9 µM | CCRF-CEM 23.3 µM | LOX IMVI 23.9 µM

O=C(CC1(O)C(=O)Nc2c(Cl)cc(Cl)cc21)c1ccc2ccccc2c1 (stereo unspecified)
inactive: SN12C 10.4 µM | SNB-19 11.4 µM | A549 5.2 µM | SK-OV-3 10.4 µM | DLD-1 11.6 µM | OVCAR-8 10.6 µM | HOP-62 7.83 µM | SNB-75 3.99 µM | OVCAR-5 16.6 µM | NCI-H23 7.33 µM | M14 4.79 µM | HT-29 5.25 µM | EKVX 9.77 µM | CCRF-CEM 10.2 µM | LOX IMVI 10.5 µM

CCOC(=O)NC(=O)c1c[nH]c(=O)[nH]c1=O
inactive: SN12C > 100 µM | SNB-19 > 100 µM | A549 > 100 µM | SK-OV-3 > 100 µM | DLD-1 > 100 µM | OVCAR-8 > 100 µM | HOP-62 > 100 µM | SNB-75 > 100 µM | SR > 100 µM | OVCAR-5 > 100 µM | NCI-H23 > 100 µM | M14 > 100 µM | HT-29 > 100 µM | HCT-116 > 100 µM | EKVX > 100 µM | CCRF-CEM > 100 µM | LOX IMVI > 100 µM

CCOC(=O)C(=O)C(C#N)c1ccc(Cl)cc1 (stereo unspecified)
inactive: SN12C > 100 µM | SNB-19 > 100 µM | A549 > 100 µM | SK-OV-3 > 100 µM | DLD-1 > 100 µM | OVCAR-8 > 100 µM | HOP-62 > 100 µM | SNB-75 > 100 µM | OVCAR-5 > 100 µM | NCI-H23 > 100 µM | M14 > 100 µM | HT-29 > 100 µM | HCT-116 > 100 µM | EKVX > 100 µM | LOX IMVI > 100 µM

CCCCN(CCCC)c1c([N+](=O)[O-])c(=O)nc2ccccn12
inactive: SN12C 34.1 µM | SNB-19 72.9 µM | A549 33.7 µM | SK-OV-3 > 100 µM | DLD-1 35.4 µM | OVCAR-8 27.5 µM | HOP-62 32.6 µM | SNB-75 30.8 µM | SR 38.5 µM | OVCAR-5 99.3 µM | NCI-H23 30.8 µM | M14 27.9 µM | HT-29 38.1 µM | HCT-116 38.9 µM | EKVX 32.8 µM | CCRF-CEM 44.6 µM

Cc1cccc(NC(=O)c2c(N)[n+]([O-])c3ccccc3[n+]2[O-])c1
inactive: SN12C 4.85 µM | SNB-19 15.8 µM | A549 16.1 µM | SK-OV-3 21.1 µM | DLD-1 11.7 µM | OVCAR-8 10.2 µM | HOP-62 17.1 µM | SNB-75 13 µM | SR 10.9 µM | OVCAR-5 26.7 µM | NCI-H23 9.68 µM | M14 12 µM | HT-29 13.7 µM | HCT-116 7.69 µM | EKVX 16.9 µM | CCRF-CEM 4.68 µM

CC[C@H](C)[C@H]1NC(=O)C(C(C)=O)=C1O
inactive: SN12C 83.6 µM | SNB-19 78.3 µM | A549 > 100 µM | DLD-1 70.3 µM | OVCAR-8 > 100 µM | HOP-62 > 100 µM | SNB-75 91.2 µM | SR 58.3 µM | OVCAR-5 > 100 µM | NCI-H23 > 100 µM | M14 > 100 µM | HT-29 > 100 µM | HCT-116 51.9 µM | EKVX > 100 µM | CCRF-CEM 52.2 µM | LOX IMVI 62.4 µM

COc1ccc(C2Oc3cc(OC)c(OC)cc3C2CCl)cc1OC (stereo unspecified)
inactive: SN12C > 100 µM | SNB-19 > 100 µM | A549 > 100 µM | DLD-1 67.5 µM | OVCAR-8 > 100 µM | HOP-62 > 100 µM | SNB-75 44.8 µM | SR > 100 µM | OVCAR-5 > 100 µM | NCI-H23 > 10 µM | M14 > 100 µM | HCT-116 > 100 µM | EKVX > 100 µM | CCRF-CEM > 100 µM | LOX IMVI > 100 µM

Cc1ccc(-c2cc(-c3ccccc3)c(C#N)c(=O)n2C2OC(CO)C(O)C(O)C2O)cc1 (stereo unspecified)
inactive: SN12C > 100 µM | SNB-19 > 100 µM | A549 > 100 µM | SK-OV-3 > 100 µM | DLD-1 > 100 µM | OVCAR-8 > 100 µM | HOP-62 > 100 µM | OVCAR-5 > 100 µM | NCI-H23 > 100 µM | M14 > 100 µM | HT-29 > 100 µM | HCT-116 > 100 µM | EKVX > 100 µM | CCRF-CEM > 100 µM | LOX IMVI > 100 µM

CC(=O)NC1=C(NCc2ccc(Cl)cc2)C(=O)c2ccccc2C1=O
inactive: SN12C 13.9 µM | SNB-19 22.6 µM | A549 12.5 µM | SK-OV-3 18.2 µM | DLD-1 6.76 µM | OVCAR-8 7.45 µM | HOP-62 12.5 µM | SNB-75 7.08 µM | SR 8 µM | NCI-H23 6.76 µM | M14 7.01 µM | HT-29 17.8 µM | HCT-116 3.12 µM | EKVX 7.62 µM | CCRF-CEM 8.53 µM | LOX IMVI 8.2 µM

COc1cc2ccc(CC#N)cc2cc1OC
inactive: SN12C > 100 µM | SNB-19 > 100 µM | A549 > 100 µM | SK-OV-3 > 100 µM | DLD-1 > 100 µM | OVCAR-8 > 100 µM | HOP-62 > 100 µM | SR > 100 µM | OVCAR-5 > 100 µM | NCI-H23 > 100 µM | HT-29 > 100 µM | EKVX 83.8 µM | CCRF-CEM > 100 µM | LOX IMVI > 100 µM

COc1ccc(O)c(C#N)c1C#N.COc1ccc(OC)c(C#N)c1C#N
inactive: SN12C > 100 µM | SNB-19 > 100 µM | A549 > 100 µM | SK-OV-3 > 100 µM | DLD-1 > 100 µM | OVCAR-8 > 100 µM | HOP-62 > 100 µM | SNB-75 45.8 µM | OVCAR-5 > 100 µM | NCI-H23 > 100 µM | HT-29 > 100 µM | HCT-116 > 100 µM | EKVX 23.7 µM | CCRF-CEM > 100 µM | LOX IMVI > 100 µM

O=[N+]([O-])c1ccc(NC2OCC(O)C(O)C2O)cc1 (stereo unspecified)
inactive: SN12C > 100 µM | SNB-19 > 100 µM | A549 > 100 µM | SK-OV-3 > 100 µM | DLD-1 > 100 µM | OVCAR-8 > 100 µM | HOP-62 > 100 µM | SNB-75 > 100 µM | SR > 100 µM | NCI-H23 > 100 µM | M14 > 100 µM | HT-29 > 100 µM | EKVX > 100 µM | CCRF-CEM > 100 µM | LOX IMVI > 100 µM

CCOc1ccc2nc(NC(=O)c3c/c(=N\NC(=O)C[N+](C)(C)C)c4ccc(O)cc4o3)sc2c1
inactive: SN12C 3.55 µM | SNB-19 5.65 µM | A549 2.76 µM | SK-OV-3 11.3 µM | DLD-1 2.52 µM | OVCAR-8 2.14 µM | SNB-75 1.52 µM | SR 3.05 µM | OVCAR-5 3.37 µM | NCI-H23 1.59 µM | M14 1.63 µM | HT-29 3.56 µM | HCT-116 3.4 µM | EKVX 4.44 µM | CCRF-CEM 1.6 µM | LOX IMVI 1.14 µM

CCOC(=O)CC(=O)ON(C)C(C)=O
inactive: SN12C > 100 µM | SNB-19 > 100 µM | A549 > 100 µM | SK-OV-3 > 100 µM | DLD-1 > 100 µM | OVCAR-8 > 100 µM | HOP-62 > 100 µM | SR > 100 µM | OVCAR-5 > 100 µM | NCI-H23 > 100 µM | M14 > 100 µM | HT-29 > 100 µM | HCT-116 > 100 µM | EKVX > 100 µM | CCRF-CEM > 100 µM | LOX IMVI > 100 µM

CCC12CCCN(Cc3ccccc3)C1c1c(n(C)c3ccccc13)C(CO)C2 (stereo unspecified)
inactive: SN12C 42.6 µM | SNB-19 55.5 µM | A549 81.8 µM | SK-OV-3 74.1 µM | DLD-1 61.5 µM | OVCAR-8 63.4 µM | HOP-62 37.6 µM | SR 25.5 µM | OVCAR-5 10.5 µM | NCI-H23 52.2 µM | HT-29 17.9 µM | HCT-116 14 µM | EKVX 71.9 µM | CCRF-CEM 83 µM | LOX IMVI 41.9 µM
